Source: patent US20260174875A1 (Novo Nordisk A/S, priority 2023, published 2026)
Like-named read-outs stand apart in the source and are kept apart here. Numbered stars: 1 amine (or outer) side, 2 acyl side, 3 side chain; on linkers, the order of the positions; unused ones are H or OH. Square brackets hold non-standard residues; d marks the D form. Side chains are listed from the residue outwards. * marks the point of attachment. C20 diacid = O=C(O)CCCCCCCCCCCCCCCCCCC(=O)*; C18 diacid = O=C(O)CCCCCCCCCCCCCCCCC(=O)*; C16 diacid = O=C(O)CCCCCCCCCCCCCCC(=O)*; γGlu = O=C(O)[C@H](CCC(=O)[*:2])N[*:1]; AEEA = NCCOCCOCC(=O)O; Aib = CC(C)(N)C(=O)O

Legend:
Assay type in all cases: cell-based
[1] = target: T1, human GIP receptor (hGIPR) (Homo sapiens, UniProt P48546); assay: GIP receptor assay, method A (CRE-luciferase reporter, BHK cells)
T1 construct: expressed in transfected cells
T1 sequence (P48546 22-466): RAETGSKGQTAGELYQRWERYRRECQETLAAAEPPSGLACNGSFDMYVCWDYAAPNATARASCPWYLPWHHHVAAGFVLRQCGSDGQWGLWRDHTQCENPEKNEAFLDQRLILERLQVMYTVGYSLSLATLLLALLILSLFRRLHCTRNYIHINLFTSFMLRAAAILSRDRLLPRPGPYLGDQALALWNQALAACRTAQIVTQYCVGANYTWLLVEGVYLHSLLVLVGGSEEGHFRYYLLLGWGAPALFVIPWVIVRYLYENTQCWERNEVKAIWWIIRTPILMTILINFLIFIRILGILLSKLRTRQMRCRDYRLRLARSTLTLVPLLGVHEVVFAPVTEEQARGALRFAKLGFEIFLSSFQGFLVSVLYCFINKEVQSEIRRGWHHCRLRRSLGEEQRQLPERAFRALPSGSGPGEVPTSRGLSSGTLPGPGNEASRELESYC
Experimental: To assess how the activation of the receptors is potentially influenced by the presence of human serum albumin (HSA), the in vitro assays were performed in the absence of HSA and presence of 1% (w/v) HSA. Unless stated otherwise the reference to the “GIP receptor assay as described in Example 4” throughout the specification shall refer to the described herein assay procedure method A (hGIPR assay) in the absence of HSA.
Activation of the human GIP receptor leads to increased intra-cellular concentrations of cyclic AMP (cAMP) and the consequent transcription activation from promoters containing multiple copies of the cAMP response element (CRE). It is thus possible to measure GIP receptor activity using a CRE-luciferase reporter gene introduced into Baby Hamster Kidney (BHK) cells co-expressing the human GIP receptor.
Cells at about 80-90% confluency were washed once with PBS (Gibco 14190-094) and detached from the cell flasks with Versene (Gibco, 15040-066). After centrifugation, the cells were counted, resuspended and diluted to approximately 1.5-3.0×10^6 (1.5E+6 to 3.0E+6) cells/mL in Recovery Cell Culture Freezing Medium (Gibco, 12648-010) and stored at −180° C. in suitable aliquots until use.
(§1) The assay buffer consisted of DMEM without phenol red (Gibco, 11880-028) supplemented with 1× GlutaMAX (Gibco, 35050-038), 10 mM HEPES (Gibco, 15630-056), 1% (w/v) ovalbumin (Sigma, A5503) and 0.1% (v/v) Pluronic F-68 (Gibco, 24040-032) either with HSA or without HSA (Sigma, A9511).
On the day before the assay hGIPR BHK Cre-Luc cells were thawed and plated out in 96 well Culture Plates (PerkinElmer/Revvity, 6005680) at 5.0×10^3 (5.0E+3) cells/well in growth medium as described above. The plates were then incubated for 21-23 hours at 37° C. with 5% CO2. On the day of the assay GLP-1-/GIP-/amylin-receptor tri-agonists or reference compounds were diluted in assay buffer using a 7-point, 10-fold titration plus a blank (absence of compound). Each compound was diluted and tested in duplicates in each experiment. In the plates containing the cells the growth medium was removed, and cells were washed twice with 100 μL PBS (Gibco 14190-094). 50 μL of the test compound dilutions were added to the plates containing cells preceded by 50 μL assay buffer with or without 2% (w/v) HSA (Sigma, A9511). The cell plates were incubated for 3 hours in a 5% CO2 incubator at 37° C. The plates were then transferred to room temperature followed by addition of 100 μL steadylite Plus™ (PerkinElmer/Revvity, 6066759). The plates were sealed and shaken for 30 minutes at room temperature while protected from light. Finally, luminescence (as an indicator of receptor activation) was measured on a Mithras reader (Berthold Technologies, DE). The EC50-values [pM] were calculated by non-linear curve fitting applying a four-parameter logistic model (Hill slope=“shared value for all datasets”) using GraphPad Prism (GraphPad Software, Boston, MA, USA).

[2] = target: T2, human GLP-1 receptor (hGLP-1R) (Homo sapiens, UniProt P43220); assay: GLP-1 receptor assay, method A (CRE-luciferase reporter, BHK cells)
T2 construct: expressed in transfected cells
T2 sequence (P43220 24-463): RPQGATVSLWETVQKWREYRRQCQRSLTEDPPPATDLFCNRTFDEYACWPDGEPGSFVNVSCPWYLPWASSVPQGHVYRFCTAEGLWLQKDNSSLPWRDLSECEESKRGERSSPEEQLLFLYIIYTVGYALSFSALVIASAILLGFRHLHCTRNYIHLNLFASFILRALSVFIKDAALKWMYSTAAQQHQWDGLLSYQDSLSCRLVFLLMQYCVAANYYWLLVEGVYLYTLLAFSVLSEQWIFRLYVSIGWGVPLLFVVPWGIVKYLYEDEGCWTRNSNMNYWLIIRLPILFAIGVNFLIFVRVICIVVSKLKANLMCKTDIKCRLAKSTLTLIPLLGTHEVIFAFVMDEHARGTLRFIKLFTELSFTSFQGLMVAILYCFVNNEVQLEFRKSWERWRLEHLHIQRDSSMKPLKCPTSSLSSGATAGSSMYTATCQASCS
Experimental: (§2) To assess how the activation of the receptors is potentially influenced by the presence of human serum albumin (HSA), the in vitro assays were performed in the absence of HSA and presence of 1% (w/v) HSA.
Cells at approximately 80-90% confluence were washed once in PBS (Gibco 14190-094) and loosened from the cell flasks with Versene (Gibco, 15040-033). […] Cells were aliquoted and stored at −180° C. until use.
as §1
Frozen stocks of hGLP-1R BHK CRE-Luc cells were thawed in a 37° C. water bath, washed once in PBS (Gibco 14190-094) and diluted to 1.5×10^6 (1.5E+6) cells/mL in assay buffer with or without 2% (w/v) HSA (Sigma, A9511). […] The assay plates were incubated for 3 hours at 37° C. in 5% CO2, left at room temperature for 5 minutes after which 100 μL steadylite Plus™ (PerkinElmer/Revvity, 6066759) was added to each well. Plates were sealed and incubated at room temperature with gentle shaking for 30 minutes while protected from light. Luminescence was detected on a luminescence plate reader e.g., a Synergy 2 (BioTek).

[3] = target: T3, human amylin receptor (hAMYR3) (Homo sapiens, UniProt O60896+P30988); assay: Amylin receptor assay, method A (CRE-luciferase reporter, BHK cells)
T3 construct: host or cells: BHK cells (Hollex-1 line expressing hCTR(a) and CRE-Luc), further transfected with human RAMP3
T3 sequence (P30988 25-474): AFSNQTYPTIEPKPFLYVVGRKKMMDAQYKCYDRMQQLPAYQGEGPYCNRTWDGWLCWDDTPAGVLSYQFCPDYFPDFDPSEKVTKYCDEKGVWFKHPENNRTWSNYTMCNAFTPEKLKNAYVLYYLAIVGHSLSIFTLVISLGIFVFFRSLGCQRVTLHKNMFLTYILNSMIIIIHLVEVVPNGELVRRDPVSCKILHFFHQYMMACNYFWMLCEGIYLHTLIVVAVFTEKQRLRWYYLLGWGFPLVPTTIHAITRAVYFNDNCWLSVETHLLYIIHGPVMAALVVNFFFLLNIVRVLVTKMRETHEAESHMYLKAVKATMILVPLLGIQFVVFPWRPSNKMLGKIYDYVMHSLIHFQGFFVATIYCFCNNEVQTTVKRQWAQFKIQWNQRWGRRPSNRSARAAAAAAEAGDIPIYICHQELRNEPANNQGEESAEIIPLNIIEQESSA
T3 sequence (O60896 24-148): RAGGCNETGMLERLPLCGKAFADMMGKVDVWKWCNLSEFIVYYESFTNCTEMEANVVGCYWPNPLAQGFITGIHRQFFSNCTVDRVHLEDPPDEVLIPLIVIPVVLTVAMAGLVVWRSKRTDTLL
Experimental: as §2
It is thus possible to measure hAMYR3 activity using a CRE-luciferase reporter gene introduced into Baby Hamster Kidney (BHK) cells co-expressing the hAMYR3.
The cell line was further transfected with human receptor modifying protein 3 (RAMP3) using standard methods.
After centrifugation, the cell pellet was resuspended and diluted to approximately 2.5-4.0×10^6 (2.5E+6 to 4.0E+6) cells/mL in Recovery™ Cell Culture Freezing Medium (Gibco, 12648-010). Cells were aliquoted and stored at −180° C. until use.
The assay buffer consisted of DMEM without phenol red (Gibco, 11880-028) supplemented with 1× GlutaMAX (Gibco, 35050-038), 10 mM HEPES (Gibco, 15630-056) and 1% (w/v) ovalbumin (Sigma, A5503) either with or without 0.1% (v/v) Pluronic F-68 (Gibco, 24040-032) and either with or without HSA (Sigma, A9511).
The plate was incubated over night at 37° C. in 5% CO2. […] Luminescence was detected on a luminescence plate reader e.g., a Synergy 2 (BioTek).

[4] = hGIPR Potency, 1% HSA, EC50, method A, in the presence of 1% HSA
[5] = method A, absence of HSA, read-out: hGIPR Potency, no HSA, EC50
[6] = hGLP-1R Potency, 1% HSA, EC50, method A, in the presence of 1% HSA
[7] = method A, absence of HSA, read-out: hGLP-1R Potency, no HSA, EC50
[8] = hAMYR3 Potency, 1% HSA, EC50, method A, in the presence of 1% HSA
[9] = method A, absence of HSA, read-out: hAMYR3 Potency, no HSA, EC50

| Substance | EC50 [1, 4] [nM] | EC50 [1, 5] [nM] | EC50 [2, 6] [nM] | EC50 [2, 7] [nM] | EC50 [3, 8] [nM] | EC50 [3, 9] [nM] |
| --- | --- | --- | --- | --- | --- | --- |
| H[Aib]HGTFTSDYSILLEEQAAREFIEWLLAGGPSSGALAQTLAQTLASHLSTAQTQRLSAELHK([AEEA-AEEA-γGlu-C18 diacid])LATLPRTETGSGSP-NH2 [Compound 51] | 0.0619 | 0.00837 | 0.0322 | 0.00768 | 0.0571 | 0.00619 |
| H[Aib]HGTFTSDYSILLEEQAAREFIEWLLAGGPSSGALQAPGQAPGASHLSTAQTARLSAELHRLATLPK([AEEA-AEEA-γGlu-C18 diacid])TETGSGSP-NH2 [Compound 107] | 0.00876 | 0.00387 | 0.0139 | 0.0041 | 0.0931 | 0.00307 |
| H[Aib]HGTFTSDYSILLEEQAAREFIEWLLAGGPSSGALQAPGQAPGASHLSTAQTARLSAELHRLK([AEEA-AEEA-γGlu-C18 diacid])TLPRTETGSGSP-NH2 [Compound 106] | 0.0103 | 0.0048 | 0.0111 | 0.00333 | 0.0312 | 0.00207 |
| H[Aib]HGTFTSDYSILLEEQAAREFIEWLLAGGPSSGALQAPGQAPLASHLSTAQTARLSAELHK([AEEA-AEEA-γGlu-C18 diacid])LATLPRTETGSGSP-NH2 [Compound 108] | 0.0115 | 0.00401 | 0.015 | 0.00457 | 0.0599 | 0.00248 |
| H[Aib]HGTFTSDYSILLEEQAAREFIEWLLAGGPSSGEASHLSTAALGRLSAELHK([AEEA-AEEA-γGlu-C18 diacid])LATLPRTETGSGSP-NH2 [Compound 88] | 0.0404 | 0.00568 | 0.0488 | 0.00412 | 0.102 | 0.0037 |
| H[Aib]HGTFTSDYSILLEEQAAREFIEWLLAGGPSSGEASHLSTAALGRLSAELHRLATLPK([AEEA-AEEA-γGlu-C18 diacid])TETGSGSP-NH2 [Compound 90] | 0.0325 | 0.0054 | 0.0386 | 0.00416 | 0.183 | 0.00545 |
| Y[Aib]EGTFTSDYSILLEEQAAREFIEWLLAGGPSGGEASHLSTAQTQRLSAELHK([AEEA-AEEA-γGlu-C18 diacid])LATLPRTETGSGSP-NH2 [Compound 74] | 0.0187 | 0.00251 | 0.141 | 0.0298 | 0.134 | 0.00273 |
| Y[Aib]EGTFTSDYSILLEEQAAREFIEWLLAGGPSGGGGEASHLSTAQTQRLSAELHK([AEEA-AEEA-γGlu-C20 diacid])LATLPRTETGSGSP-NH2 [Compound 96] | 0.03 | 0.00362 | 0.162 | 0.0168 | 0.595 | 0.00373 |
| Y[Aib]EGTFTSDYSILLEEQAAREFIEWLLAGGPSK([AEEA-AEEA-γGlu-C16 diacid])GASELSTAALGRLSAELHRLATLPRTETGSGSP-NH2 [Compound 20] |  | 0.00482 |  | 0.0406 |  | 0.00365 |
| Y[Aib]EGTFTSDYSILLEEQAAREFIEWLLAGGPSK([AEEA-AEEA-γGlu-C18 diacid])GAEASELSTAALGRLSAELHELATLPRTETGSGSP-NH2 [Compound 32] |  | 0.00809 |  | 0.0276 |  | 0.0101 |
| Y[Aib]EGTFTSDYSILLEEQAAREFIEWLLAGGPSK([AEEA-AEEA-γGlu-C18 diacid])GALAQTLAQTLASELSTAALGRLSAELHELATLPRTETGSGSP-NH2 [Compound 21] |  | 0.00863 |  | 0.0412 |  | 0.012 |
| Y[Aib]EGTFTSDYSILLEEQAAREFIEWLLAGGPSK([AEEA-AEEA-γGlu-C18 diacid])GALAQTLFVNQASELSTAALGRLSAELHELATLPRTETGSGSP-NH2 [Compound 24] |  | 0.00234 |  | 0.0515 |  | 0.00424 |
| Y[Aib]EGTFTSDYSILLEEQAAREFIEWLLAGGPSK([AEEA-AEEA-γGlu-C18 diacid])GALAQTLGTNEASELSTAALGRLSAELHELATLPRTETGSGSP-NH2 [Compound 23] |  | 0.0012 |  | 0.0153 |  | 0.00517 |
| Y[Aib]EGTFTSDYSILLEEQAAREFIEWLLAGGPSK([AEEA-AEEA-γGlu-C18 diacid])GAPPEASELSTAALGRLSAELHELATLPRTETGSGSP-NH2 [Compound 33] |  | 0.00311 |  | 0.0321 |  | 0.0103 |
